The values below are quoted from earlier work in patent publication US20240050408A1, “USE OF MGLUR5 ANTAGONISTS FOR TREATING AMPHETAMINE ADDICTION” (NOVARTIS AG, priority 2020, published 2024).

For data set [1], the system named is methamphetamine self-administration behavior. The note with it: rat model; Gass et al. 2009; cited from earlier work.
The test system of data set [2] is methamphetamine conditioned place preference. The note with it: rats; Herrold et al. 2013; cited from earlier work.

For the compound `Cc1nc(C#Cc2cccnc2)cs1` [MTEP, 3-[(2-methyl-1,3-thiazol-4-yl)ethynyl]pyridine], in data set [1], the “cue- and drug-induced reinstatement of methamphetamine-seeking behavior” value is “dose dependently prevented”; the “cue-induced reinstatement of food-seeking behavior” value is given as “did not alter”; the methamphetamine self-administration behavior entry was “dose dependently reduced”; the “overall responding for food” value is “without altering”. Also, the “maintenance of the expression of methamphetamine conditioned place preference” value in data set [2] is “inhibited”.
For `Cc1cccc(C#Cc2ccccc2)n1` [MPEP, 2-Methyl-6-(phenylethynyl)-pyridine], the “maintenance of the expression of methamphetamine conditioned place preference” value in data set [2] is listed as “inhibited”.
